Experimental data from publication PMC9528225 (Molecular Immunology, 2012).

Molecular target: HLA-DR15 (DRB1*1501) (Homo sapiens, UniProt P01903+P01911)
Test: biochemical
Format: binding

Question: Which IC50 does the source give for CC(C)C[C@H](NC(=O)[C@H](Cc1ccc(O)cc1)NC(=O)[C@H](C)NC(=O)[C@H](CCCNC(=N)N)NC(=O)[C@H](CC(C)C)NC(=O)[C@H](CCC(N)=O)NC(=O)[C@H](CCC(=O)O)NC(=O)[C@H](C)NC(=O)[C@@H](N)CCC(=O)O)C(=O)N[C@@H](CC(=O)O)C(=O)NCC(=O)N[C@H](C(=O)NCC(=O)N[C@H](C(=O)N[C@@H](CCC(=O)O)C(=O)O)C(C)C)[C@@H](C)O [A3 152–166] here?
Answer: The IC50 was 18 nM.
